{"source": "patent US12440466B2", "about": "“Fatty acid derivatives for treating non-alcoholic steatohepatitis” (BASF AS, priority 2017, dated 2025)", "key": {"CDAA/high-fat fed mice": {"tested_on": "CDAA/high-fat fed mice", "experiment": "Hepatic lipidomic analysis, CDAA/high-fat diet mouse model", "format": "in vivo", "conditions": "Compound A 112 mg/kg bw per day or equimolar EPA, orally", "method": "In Biological Examples 1-7, studies were performed in male C56BL/6J mice (9 weeks old). Mice were fed either choline-sufficient (CS) or choline deficient high-fat diets (31% total calories; “CDAA/high-fat”). The NASH inducing diet was instigated 6 weeks prior to the commencement of treatment in order to design the study as a treatment/reversal set-up rather than prophylaxis.\nIn Biological Example 7, after 6 weeks of either the CS or CDAA/high-fat diet, mice were administered 112 mg/kg bw per day of Compound A, or an equimolar dose of eicosapentaenoic acid (EPA), delivered orally. Hepatic lipidomic analysis was performed in isolated liver samples from CS (n=9), Compound A (n=9) and EPA (n=8) groups.\nTo further understand the effects of Compound A on hepatic lipid metabolism, lipidomic analysis of CS- and CDAA/high-fat fed mice (“CD”) was performed in isolated liver tissue."}, "STAM (model) mice": {"tested_on": "STAM (model) mice", "experiment": "Fibrosis area by Sirius Red staining, STAM model", "format": "in vivo, mouse", "conditions": "Sirius Red positive area, 6 weeks treatment, Compound A 37 mg/kg/day oral gavage", "text": "In Biological Example 8, pathogen-free 15-day-pregnant C57BL/6 mice were obtained from Charles River Laboratories in Japan Inc. (Kanagawa, Japan). NASH was established in male mice by a single subcutaneous injection of streptozotocin (STZ) (Sigma, USA) after birth and feeding with a high fat diet (HFD; CLEA) Japan, Japan) ad libitum after 4 weeks of age (day 28±2). Mice were randomised into 3 groups of 8 mice at 6 weeks of age the day before the start of treatment: vehicle (saline), Compound A and telmisartan (positive control). Treatment with Compound A at a dose of 37 mg/kg bw per day via oral gavage in conjunction with a high-fat diet was given for 6 weeks before sacrifice. NAFLD activity score (NAS) was calculated according to standardised criteria and fibrosis area was assessed via Sirius Red staining."}, "APOE*3Leiden.CETP mice": {"tested_on": "APOE*3Leiden.CETP mice", "experiment": "Hepatic free cholesterol, cholesterol ester and triglyceride content (HPTLC) in APOE*3Leiden.CETP mice", "format": "in vivo, mouse", "conditions": "ApoE*3L-CETP mice, Western diet 0.25% cholesterol, 4 weeks; Compound A LD 0.3 mmol/kg bw/day; EPA/DHA ethyl esters HD 3 mmol/kg bw/day", "text": "The APOE*3Leiden.CETP double transgenic mouse expresses a variant of the human apolipoprotein E3 (APOE3), the APOE*3Leiden, in addition to the human apolipoprotein C1 (APOC1) and CETP. […] By increasing the cholesterol content of the diet in this model, all the characteristics of human NASH develop.\nIn Biological Example 25, the effects of Compound A alone and in combination with omega-3 fatty acid were studied. APOE*3Leiden.CETP mice were placed on a semi-synthetic high fat diet (24% fat w/w) with […] w/w. After a 4-week run-in period, low-responder mice were removed from the study and the remaining mice were sub-divided into groups of 8 mice each, matched for plasma cholesterol, triglycerides, blood glucose, body weight and age (t=0) and treatment was started. To facilitate mixing of the compounds, sunflower oil was added to a total oil volume of 10 mL/kg diet. Compound A was administered at 0.3 mmol/kg bw/day whilst the omega-3 fatty acid ethyl-esters (85% w/w EPA/DHA ethyl-esters) were administered at 3.0 mmol/kg bw/day. Both Compound A and the omega-3 ethyl esters were administered orally as admix to the high-fat diet. After 4 weeks of treatment, mice were sacrificed by C02 asphyxiation, the liver was collected and the hepatic content of free cholesterol, cholesterol ester and triglyceride were measured after extraction and separation by high performance thin layer chromatography."}, "[1]": {"tested_on": "canonical genes regulating hepatic fibrogenesis", "experiment": "Hepatic fibrogenic gene expression by RNA sequencing in ob/ob AMLN mice", "format": "in vivo, mouse", "conditions": "4 weeks, Compound A 112 mg/kg, pioglitazone 30 mg/kg", "method": "(§1) Obese diet-induced B6.V-Lepob/Jrj mice (ob/ob) are consistently fibrosis (liver) prone when cholesterol (2%), 40% fat (containing 18% trans-fatty acids) and 20% fructose are added to a high-caloric diet (i.e., AMLN high-fat diet). ob/ob mice on AMLN diet (termed ‘ob/ob AMLN mice’) develop steatohepatitis and fibrosis within a shorter timeframe ([…]) compared with wild-type C57BL/6 mice (AMLN mice) fed the same diet. ob/ob AMLN mice provide an obese diet-induced model of NASH that also allows the study of effects on glycemic control. Development of NASH in the ob/ob AMLN model is confirmed by biopsy.\n(§2) In Biological Examples 10-12, 15, and 19, studies were performed in male ob/ob mice (5 weeks old) fed an AMLN high-fat diet for 15 weeks, then randomized into 3 groups (n=10 per group) to receive either 112 mg/kg bw per day of Compound A via diet, 30 mg/kg bw per day pioglitazone via diet or no treatment (vehicle) for a further 4 weeks. An oral glucose tolerance test (OGTT) was performed at week 3. Hepatic fibrosis was assessed via measurements of hepatic fibrogenic/fibrolytic gene expression by RNA sequencing at 4 weeks."}, "[2]": {"tested_on": "α-smooth muscle actin (SMA)", "experiment": "Hepatic α-SMA content by quantitative IHC in ob/ob AMLN mice", "format": "in vivo, mouse", "conditions": "8 weeks; for α-SMA (total and % of fractional area content): vs vehicle", "method": "as §1\n(§3) In Biological Examples 10, 13-14, and 16-18, studies were performed in male ob/ob mice (5 weeks old) fed an AMLN high-fat diet for 18 weeks, then randomized into 6 groups (n=10 per group) to receive either Compound A (at 3 different daily doses, 45 mg/kg, 90 mg/kg or 135 mg/kg) via diet, 30 mg/kg bw per day obeticholic acid (OCA) via diet, or no treatment (vehicle) for a further 8 weeks. Assessment of NASH related parameters and fibrosis was made at study end by quantitative immune histochemistry (IHC) measurements."}, "ob/ob AMLN mice [3]": {"tested_on": "ob/ob AMLN mice", "experiment": "Hepatic steatosis and hepatic cholesterol content in ob/ob AMLN mice", "format": "in vivo, mouse", "conditions": "8 weeks, Compound A 45-135 mg/kg, OCA 30 mg/kg", "method": "as §1, §3"}, "ob/ob AMLN mice [4]": {"tested_on": "ob/ob AMLN mice", "experiment": "Oral glucose tolerance test (OGTT) and glycemic control in ob/ob AMLN mice", "format": "in vivo, mouse", "conditions": "after 3 weeks, Compound A 112 mg/kg, pioglitazone 30 mg/kg", "method": "as §1, §2\nAfter 3 weeks of administration of Compound A (112 mg/kg), pioglitazone, or vehicle control, an oral glucose tolerance test (OGTT) was performed in ob/ob AMLN mice."}}, "note": "Marks after values point to notes of the source that are not given here."}
{"smiles": "CC/C=C\\C/C=C\\C/C=C\\C/C=C\\C/C=C\\CCCCOC(CC)C(=O)O", "note": "(stereo not shown) [Compound A, 2-((5Z,8Z,11Z,14Z,17Z)-icosa-5,8,11,14,17-pentaenyloxy)butanoic acid]", "values": [{"measurement": "hepatic cholesteryl ester", "setting": "CDAA/high-fat fed mice", "result": "significantly reduced"}, {"measurement": "hepatic diglycerides (DG)", "setting": "CDAA/high-fat fed mice", "result": "significantly reduced"}, {"measurement": "hepatic free fatty acids (FFA)", "setting": "CDAA/high-fat fed mice", "result": "significantly reduced"}, {"measurement": "hepatic triglyceride (TG)", "setting": "CDAA/high-fat fed mice", "result": "significantly reduced"}, {"measurement": "Fibrosis area (%)", "setting": "STAM (model) mice", "result": 0.79, "unit": "%"}, {"measurement": "Hepatic CE", "setting": "APOE*3Leiden.CETP mice", "result": "17*"}, {"measurement": "Hepatic FC", "setting": "APOE*3Leiden.CETP mice", "result": 9.5}, {"measurement": "Hepatic TG", "setting": "APOE*3Leiden.CETP mice", "result": 58.8}, {"measurement": "hepatic HSP47 expression", "setting": "[1]", "result": "significantly reduced"}, {"measurement": "hepatic PDGF-β expression", "setting": "[1]", "result": "significantly reduced"}, {"measurement": "hepatic PDGFR-β expression", "setting": "[1]", "result": "significantly reduced"}, {"measurement": "hepatic col1A1 expression", "setting": "[1]", "result": "significantly reduced"}, {"measurement": "hepatic col3A1 expression", "setting": "[1]", "result": "significantly reduced"}, {"measurement": "hepatic col4A1 expression", "setting": "[1]", "result": "significantly reduced"}, {"measurement": "area percentage of α-SMA content compared to pre-treatment biopsy", "setting": "[2]; Compound A 45 mg/kg", "result": "non-significant trend"}, {"measurement": "area percentage of α-SMA content compared to pre-treatment biopsy", "setting": "[2]; Compound A 90 mg/kg", "result": "non-significant trend"}, {"measurement": "α-SMA (total and % of fractional area content)", "setting": "[2]; Compound A 90 mg/kg", "result": "markedly reduced"}, {"measurement": "area percentage of α-SMA content compared to pre-treatment biopsy", "setting": "[2]; Compound A 135 mg/kg", "result": "decreased"}, {"measurement": "α-SMA (total and % of fractional area content)", "setting": "[2]; Compound A 135 mg/kg", "result": "markedly reduced"}, {"measurement": "steatosis (percent area or total lipid content)", "setting": "ob/ob AMLN mice [3]", "result": "significantly reduced"}, {"measurement": "fasting plasma glucose levels", "setting": "ob/ob AMLN mice [4]", "result": "significant reductions"}, {"measurement": "glucose excursion after glucose load (AUC 0-240 mins), OGTT", "setting": "ob/ob AMLN mice [4]", "result": "significantly reduced"}]}
